Measurements reported in patent publication US6387909B1, “Thienopyranecarboxamide derivatives” (Recordati S.A. Chemical and Pharmaceutical Company, priority 1999, dated 2002).

Assays:
α1L adrenoceptor = biological target: T1, α1L adrenoceptor (Oryctolagus cuniculus, UniProt O02824); assay: Functional antagonism of noradrenaline-induced contractions of rabbit aorta pretreated with chloroethylclonidine; assay type: biochemical; settings: NA-induced contractions
T1 sequence (O02824 1-466): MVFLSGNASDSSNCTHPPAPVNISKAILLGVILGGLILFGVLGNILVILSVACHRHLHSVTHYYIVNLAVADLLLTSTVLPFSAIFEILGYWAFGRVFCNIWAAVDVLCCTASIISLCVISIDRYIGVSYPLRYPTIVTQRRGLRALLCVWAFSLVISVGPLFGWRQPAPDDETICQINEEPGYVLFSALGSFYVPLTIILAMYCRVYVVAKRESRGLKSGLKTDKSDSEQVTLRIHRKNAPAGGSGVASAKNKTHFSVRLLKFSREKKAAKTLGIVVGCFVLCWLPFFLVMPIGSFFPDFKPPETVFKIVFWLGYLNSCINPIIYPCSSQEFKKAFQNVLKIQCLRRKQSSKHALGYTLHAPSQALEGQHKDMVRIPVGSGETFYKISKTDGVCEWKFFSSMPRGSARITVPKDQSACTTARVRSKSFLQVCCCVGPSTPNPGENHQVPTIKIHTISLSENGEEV
Procedure: Adult male New Zealand rabbits were sacrificed by cervical dislocation. The aorta was removed, placed in Krebs-Henseleit buffer and dissected free of adhering tissue. […] Desmethylimipramine (0.1 μM) and corticosterone (1 μM) to block neuronal and extraneuronal uptake of NA, (±)-propranol (1 μM) to block β adrenoceptors and yohimbine (0.1 μM) to block α2 adrenoceptors were added to the buffer.
The preparations were equilibrated for 60 minutes and then primed every 30 minutes with 10 μM NA for three times. The aortic rings were then incubated with the alkylating agent chloroethylclonidine (50 μM) for 30 minutes and then washed extensively three times, over a 30 min period before constructing the NA-concentration/response curve. Following washing, tissue was re-equilibrated for 45 min. Test drug was added and after 30 minutes, a second cumulative-NA-concentration/response curve was constructed. Each antagonist concentration was tested using 2-3 aortic rings from different rabbits.
Dose ratios (i.e., the ratio between the concentrations of noradrenaline required to produce half-maximal response in the presence and in the absence of the test antagonist) were calculated at each concentration of the compounds. The logarithm of these dose ratio −1 was plotted against the logarithm of the compound concentrations (Schild plot) to evaluate the affinity constant Kb.
When only one or two concentrations of the test compounds were utilised, the apparent Kb value was calculated using the formula: Kb=[B]/(DOSE RATIO-1), where B is the antagonist concentration.

[1] = biological target: T2, recombinant α1d-adrenoceptor (Homo sapiens, UniProt P25100); assay: Radioligand binding ([3H]prazosin) to cloned α1d adrenoceptor; settings: read-out: Affinity (Ki) α1d
T2 construct: expressed in transfected cells
T2 sequence (P25100 1-572): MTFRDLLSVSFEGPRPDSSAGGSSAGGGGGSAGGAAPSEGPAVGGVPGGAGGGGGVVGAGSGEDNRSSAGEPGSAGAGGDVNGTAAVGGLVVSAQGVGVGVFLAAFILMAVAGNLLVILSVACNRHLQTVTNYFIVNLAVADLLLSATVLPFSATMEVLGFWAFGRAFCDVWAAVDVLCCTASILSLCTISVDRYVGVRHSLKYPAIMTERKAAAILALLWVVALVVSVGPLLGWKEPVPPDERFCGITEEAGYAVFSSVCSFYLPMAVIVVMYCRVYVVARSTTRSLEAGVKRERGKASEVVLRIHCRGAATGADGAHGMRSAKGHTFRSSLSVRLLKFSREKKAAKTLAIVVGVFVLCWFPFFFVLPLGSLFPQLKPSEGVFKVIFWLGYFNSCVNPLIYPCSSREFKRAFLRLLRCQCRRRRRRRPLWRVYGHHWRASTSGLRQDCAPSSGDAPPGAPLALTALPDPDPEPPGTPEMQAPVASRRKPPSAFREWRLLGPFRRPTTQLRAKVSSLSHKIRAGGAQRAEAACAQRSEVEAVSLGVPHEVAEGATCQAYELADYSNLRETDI
Procedure: Determination of affinity for cloned subtypes of the α1-adrenoceptor was performed in membranes from cells transfected by electroporation with DNA expressing the genes encoding each α1-adrenoceptor subtype.
Non-specific binding was determined in the presence of 10 μM phentolamine. Incubation was stopped by addition of ice-cold Tris buffer and rapid filtration through Schleicher & Schuell GF52 filters that had been pretreated with 0.2%-polyethyleneimine.
Data were expressed as mean of Ki.

Compound	pKb, functional affinity for the α1L adrenoceptor subtype (α1L adrenoceptor)	Ki [1] [nM]
O=C(NCCCN1CCN(c2ccccc2OCC(F)(F)F)CC1)c1csc2c(=O)cc(-c3ccccc3)oc12 [Example 5, 7-Oxo-5-phenyl-N-{3-[4-[2-(2,2,2-trifluoroethoxy)phenyl]-1-piperazinyl]propyl}-7H-thieno[3,2-b]pyran-3-carboxamide]	9.12	1.01
COc1ccccc1N1CCN(CCCNC(=O)c2csc3c(=O)cc(-c4ccccc4)oc23)CC1 [Example 2, N-{3-[4-(2-Methoxyphenyl)-1-piperazinyl]propyl}-7-oxo-5-phenyl-7H-thieno[3,2-b]pyran-3-carboxamide]	8.85	2.46
